Results: ChEMBL document CHEMBL3593243, “Discovery of novel, potent, selective and cellular active ADC type PTP1B inhibitors via fragment-docking-oriented de novel design” (Bioorg Med Chem, 2015)
pIC50, pKi: −log10 of the molar value.

Key:
[1] = molecular target: T1, Tyrosine-protein phosphatase non-receptor type 1 (Homo sapiens, UniProt P18031); assay: Inhibition of human PTP1B catalytic domain expressed in Escherichia coli assessed as pNPP hydrolysis measured every 30 secs for 15 mins
T1 sequence (P18031 whole entry): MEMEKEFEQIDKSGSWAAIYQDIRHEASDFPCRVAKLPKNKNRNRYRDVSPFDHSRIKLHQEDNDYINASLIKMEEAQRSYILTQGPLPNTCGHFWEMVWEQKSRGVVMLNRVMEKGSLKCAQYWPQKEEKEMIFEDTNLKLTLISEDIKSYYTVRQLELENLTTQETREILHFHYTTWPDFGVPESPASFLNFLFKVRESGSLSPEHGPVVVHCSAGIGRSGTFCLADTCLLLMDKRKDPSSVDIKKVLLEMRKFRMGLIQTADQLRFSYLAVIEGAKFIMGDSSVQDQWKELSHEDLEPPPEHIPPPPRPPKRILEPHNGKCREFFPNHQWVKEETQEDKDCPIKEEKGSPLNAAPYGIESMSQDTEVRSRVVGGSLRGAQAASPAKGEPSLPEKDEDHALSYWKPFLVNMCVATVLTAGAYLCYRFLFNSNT

[2] = molecular target: T1, Tyrosine-protein phosphatase non-receptor type 1; assay: Inhibition of recombinant PTP1B (unknown origin) assessed as pNPP hydrolysis after 30 mins
[3] = molecular target: Tyrosine-protein phosphatase non-receptor type 6 (Homo sapiens, UniProt P29350); assay: Inhibition of SHP1 (unknown origin) using pNPP as substrate
[4] = molecular target: T2, Tyrosine-protein phosphatase non-receptor type 2 (Homo sapiens, UniProt P17706); assay: Inhibition of TCPTP (unknown origin) assessed as pNPP hydrolysis after 30 mins
T2 sequence (P17706 whole entry): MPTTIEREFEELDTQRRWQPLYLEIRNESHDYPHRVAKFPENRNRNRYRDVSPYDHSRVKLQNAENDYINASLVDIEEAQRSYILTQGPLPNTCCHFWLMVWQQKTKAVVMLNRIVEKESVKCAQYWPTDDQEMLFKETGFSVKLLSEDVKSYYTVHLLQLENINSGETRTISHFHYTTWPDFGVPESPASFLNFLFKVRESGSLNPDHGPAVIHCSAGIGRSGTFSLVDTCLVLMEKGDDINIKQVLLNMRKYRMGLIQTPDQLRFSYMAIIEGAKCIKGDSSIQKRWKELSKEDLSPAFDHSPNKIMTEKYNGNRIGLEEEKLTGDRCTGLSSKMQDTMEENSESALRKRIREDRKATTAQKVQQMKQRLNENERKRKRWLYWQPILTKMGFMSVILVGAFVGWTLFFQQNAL

Sequence of Tyrosine-protein phosphatase non-receptor type 6 (P29350 whole entry): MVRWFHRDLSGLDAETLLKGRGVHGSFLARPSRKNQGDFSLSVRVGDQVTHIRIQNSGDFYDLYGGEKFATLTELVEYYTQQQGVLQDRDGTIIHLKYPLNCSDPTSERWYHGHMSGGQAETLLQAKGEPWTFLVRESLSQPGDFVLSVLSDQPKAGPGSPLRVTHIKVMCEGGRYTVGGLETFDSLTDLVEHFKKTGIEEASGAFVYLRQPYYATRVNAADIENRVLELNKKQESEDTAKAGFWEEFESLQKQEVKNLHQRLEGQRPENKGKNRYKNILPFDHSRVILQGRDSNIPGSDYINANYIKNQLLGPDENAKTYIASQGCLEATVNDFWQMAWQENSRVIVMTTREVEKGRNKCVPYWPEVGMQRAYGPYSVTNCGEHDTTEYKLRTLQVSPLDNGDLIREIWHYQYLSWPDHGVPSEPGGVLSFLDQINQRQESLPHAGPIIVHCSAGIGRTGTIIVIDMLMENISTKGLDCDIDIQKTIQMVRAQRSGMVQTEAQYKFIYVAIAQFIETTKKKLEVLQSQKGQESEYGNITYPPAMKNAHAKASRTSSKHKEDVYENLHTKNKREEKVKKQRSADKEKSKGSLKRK

Structure (SMILES)	pKi [1]	pIC50 [2]	pIC50 [3]	pIC50 [4]
NC(=O)[C@H](Cc1ccc(C(F)(F)P(=O)(O)O)cc1)NC(=O)[C@H](Cc1ccccc1)NC(=O)Cc1ccc(C(F)(F)P(=O)(O)O)cc1	8.77			
CCOc1cc(NS(C)(=O)=O)c(OCC)cc1CNC(=O)Nc1ccc(Br)cc1		6.67	5.64	5.87
CCOc1cc(NS(C)(=O)=O)c(OCC)cc1CNC(=O)Nc1cccc(OC)c1		5.56		
CCOc1cc(NS(C)(=O)=O)c(OCC)cc1CNC(=O)NCc1ccccc1		6.12		
CCOc1cc(NS(C)(=O)=O)c(OCC)cc1CNC(=O)Nc1ccc(OC)c(OC)c1		6.69		
CCOc1cc(NS(C)(=O)=O)c(OCC)cc1CNC(=O)Nc1ccc(C)cc1		6.51		5.28
CCOc1cc(NS(C)(=O)=O)c(OCC)cc1CNC(=O)Nc1ccc(OC)cc1		6.69	5.04	
CCOc1cc(NS(C)(=O)=O)c(OCC)cc1CNC(=O)Nc1ccccc1		6.27		
